Values after ≈ are worked out from the molar mass of the structure shown.
Tests used:
[1] = system: rhinovirus type 1A (RV-1A); experiment: Tissue culture testing, rhinovirus type 1A in HeLa cells; assay type: cell-based; conditions: Enterovirus, 48 and 72 hours, NA = not active at the standard test conditions, read-out: RV-1A: lowest concentration of the compound necessary to cause a 50 percent reduction in cytopathic effect
In short: (§1)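 Reported figures give, in μg/ml, the minimum compound level required for the effect. HeLa monolayers are exposed to compound in serum-supplemented Eagle's medium before virus is added, alongside uninfected cell controls.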

Rhinovirus Type 58 = experiment: Inhibition of cytopathic effect in WI-38 cell culture tubes, rhinovirus type 58; assay type: cell-based; conditions: Enterovirus, WI-38 cells, read-out: Inhibition grade, Rhinovirus Type 58; for inhibition at 25 µg/mL: 25 μg/ml
Experimental: (§2) The test compound was dissolved in an appropriate solvent (generally dimethyl sulfoxide) and incubated at 56° C. for at least 15 minutes and this solution was then used to prepare various test solutions having the desired concentration of test compound in preheated WI maintenance medium (49% Eagles, 49% medium 199, 2% fetal calf serum and antibiotics).
(§3) Triplicate cell culture tubes (WI-38 human embryonic lung cell culture tubes) were fed with 1 ml of medium containing the compound at specified concentrations and inoculated with 3-300 TCID50 (3-300 times the tissue culture infective dose 50, i.e., the dose required to infect 50% of the cell cultures tested). Simultaneous viral titrations were performed. The tissue cultures were supplemented with fresh medium when necessary (around 3-4 days) until viral titrations were completed.
(§4) The cell culture tubes were examined dialy for cytopathic effect. […] Comparisons were made at that time with the percentage of cell sheet destruction in tubes containing virus compound mixtures. Observed differences of 75% or more were graded "+", 74-50% as "±", and less than 50% as "-" inhibition.

rhinovirus type 2 (RV-2) = experiment: Tissue culture testing, rhinovirus type 2 in HeLa cells; assay type: cell-based; conditions: Enterovirus, 48 and 72 hours, NA = not active at the standard test conditions, read-out: RV-2: lowest concentration of the compound necessary to cause a 50 percent reduction in cytopathic effect
In short: as §1

Coxsackie A21 virus = experiment: Continuous Oral Feeding test in mice challenged IP with Coxsackie A21 virus; assay type: in vivo; conditions: po, 0.06 % in diet, 240 h
In short: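 Activity judged by chi-square on 10-day deaths versus untreated controls, with values above 3.84 counted active at 95% confidence. The IP challenge (0.2 ml/mouse, HeLa-grown virus, 80 to 100% lethal in 8 to 12 g mice) came on day 1, after diet containing 0.06% (weight percent) compound began on day 0.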

rhinovirus type 8 (RV-8) = experiment: Tissue culture testing, rhinovirus type 8 in HeLa cells; assay type: cell-based; conditions: Enterovirus, 48 and 72 hours, NA = not active at the standard test conditions, read-out: RV-8: lowest concentration of the compound necessary to cause a 50 percent reduction in cytopathic effect
Experimental: (§5) Monolayered HeLa cells in 16 millimeter (mm) tissue culture dishes were treated with 1 ml of culture medium (Eagles medium supplemented with fetal calf serum) containing subject compound at an appropriate concentration or containing no compound at all. Culture media such as those described herein are more fully described in standard texts, as for example, Kuchler's Biochemical Methods in Cell Culture and Virology, Dowden, Hutchinson and Ross, Inc., Stroudsberg, PA (1977). Following treatment, cells were challenged with 0.05 ml of rhinovirus type 1A (RV-1A), rhinovirus type 2 (RV-2) or Coxsackie A21 virus (Cox A21) in culture medium. Some of the compounds were also tested against rhinovirus type 5 (RV-5), rhinovirus type 8 (RV-8) or rhinovirus type 64 (RV-64). Cell controls received no viruses.
(§6) ^2 Lowest concentration of the compound (μg/ml) necessary to cause

[2] = system: Coxsackie A21 virus (Cox A21); experiment: Tissue culture testing, Coxsackie A21 virus in HeLa cells; assay type: cell-based; conditions: 48 and 72 hours, NA = not active at the standard test conditions, read-out: Cox A21: lowest concentration of the compound necessary to cause a 50 percent reduction in cytopathic effect
In short: as §1

Rhinovirus Type 4 = experiment: Inhibition of cytopathic effect in WI-38 cell culture tubes, rhinovirus type 4; assay type: cell-based; conditions: Enterovirus, WI-38 cells, read-out: Inhibition grade, Rhinovirus Type 4; for inhibition at 25 µg/mL: 25 μg/ml
Experimental: as §2, §3, §4

rhinovirus type 5 (RV-5) = experiment: Tissue culture testing, rhinovirus type 5 in HeLa cells; assay type: cell-based; conditions: Enterovirus, 48 and 72 hours, NA = not active at the standard test conditions, read-out: RV-5: lowest concentration of the compound necessary to cause a 50 percent reduction in cytopathic effect
Experimental: as §5, §6

[3] = system: rhinovirus type 64 (RV-64); experiment: Tissue culture testing, rhinovirus type 64 in HeLa cells; assay type: cell-based; conditions: Enterovirus, 48 and 72 hours, NA = not active at the standard test conditions, read-out: RV-64: lowest concentration of the compound necessary to cause a 50 percent reduction in cytopathic effect
Experimental: as §5, §6

[4] = system: 20 different rhinoviruses; experiment: Summary of WI-38 tissue culture testing against 20 rhinoviruses; assay type: cell-based; conditions: 3.0 μg/ml
Experimental: as §2, §3, §4

| Structure (SMILES) | EC50 [1] | inhibition at 25 µg/mL (Rhinovirus Type 58) | EC50 (rhinovirus type 2 (RV-2)) | Continuous Oral Feeding X^2 (chi-square, deaths vs control) (Coxsackie A21 virus) | EC50 (rhinovirus type 8 (RV-8)) | EC50 [2] | inhibition at 25 µg/mL (Rhinovirus Type 4) | EC50 (rhinovirus type 5 (RV-5)) | EC50 [3] | inhibition at 12.5 µg/mL (Rhinovirus Type 58; 12.5 μg/ml) | inhibition at 12.5 µg/mL (Rhinovirus Type 4; 12.5 μg/ml) | inhibition of the multiplication of the majority of the 20 test rhinoviruses [4] | inhibition at 3 µg/mL (Rhinovirus Type 58; 3.0 μg/ml) | inhibition at 3 µg/mL (Rhinovirus Type 4; 3.0 μg/ml) |
| --- | --- | --- | --- | --- | --- | --- | --- | --- | --- | --- | --- | --- | --- | --- |
| CS(=O)(=O)c1ccc(Oc2ccc(C(=O)c3ccccc3)cc2)nc1 [Example 31, (4-((5-(methylsulfonyl)-2-pyridinyl)oxy)phenyl)phenylmethanone] | 12.5 mg/L (≈ 35.4 µM) | ≥ 75% | 5 mg/L (≈ 14.1 µM) | 24.397 | 6.25 mg/L (≈ 17.7 µM) | 0.125 mg/L (≈ 0.354 µM) | ≥ 75% | 6.25 mg/L (≈ 17.7 µM) | 2.5 mg/L (≈ 7.07 µM) | – | – | – | – | – |
| CCS(=O)(=O)c1ccc(Oc2ccc(Cl)cc2)nc1 [Example 42, 2-(4-chlorophenoxy)-5-(ethylsulfonyl)pyridine] | 6.25 mg/L (≈ 21 µM) | – | 3.12 mg/L (≈ 10.5 µM) | 17.64 | ~50 mg/L (≈ 168 µM) | 3.12 mg/L (≈ 10.5 µM) | – | – | ≤ 3.12 mg/L | ≥ 75% | ≥ 75% | – | – | – |
| CCS(=O)(=O)c1ccc(Oc2ccc(C(=O)c3ccccc3)cc2)nc1 [Example 43, (4-((5-(ethylsulfonyl)-2-pyridinyl)oxy)phenyl)phenylmethanone] | ≤ 3.12 mg/L | – | 6.25 mg/L (≈ 17 µM) | 20.44 | 25 mg/L (≈ 68 µM) | < 3.12 mg/L | – | 12.5 mg/L (≈ 34 µM) | 6.25 mg/L (≈ 17 µM) | – | – | failed to inhibit the multiplication of the majority of the 20 test rhinoviruses | < 50% | < 50% |
| CCS(=O)(=O)c1ccc(Oc2ccc(Cl)c(Cl)c2)nc1 [Example 47, 2-(3,4-dichlorophenoxy)-5-(ethylsulfonyl)pyridine] | 0.312 mg/L (≈ 0.941 µM) | ≥ 75% | 0.625 mg/L (≈ 1.88 µM) | 1.10 | – | 2.5 mg/L (≈ 7.53 µM) | ≥ 75% | – | ≤ 0.312 mg/L | – | – | – | – | – |

— US4371537A, “Sulfur-substituted phenoxypyridines having antiviral activity” (The Dow Chemical Company, priority 1981, dated 1983)
